Data on two compounds can be found in PMC7118210 (Frontiers in Pharmacology, 2020).

Like-named read-outs stand apart in the source and are kept apart here. Where only a bound is given, the exact number is not on record here.

Details of data set [1]: method as in Liu M. et al., 2012. The following applies: dogs, ref Liu M. et al., 2012, cited from earlier work.
For data set [2] the following is noted: cited from earlier work.
Data set [3] can be described thus: Multiple-dose pharmacokinetics in rats. Format: in vivo, Sprague Dawley rats. Here is the method:
The optimal volume and activity in unit volume of enzyme solution [0.2 M acetic acid/water solution: 0.2 M ammonium acetate/water solution, 15:35 (v/v)] were determined through a pretest of the enzyme (rat plasma, 10 μl, 10 U μl^-1; dog plasma, 10 μl, 10 U μl^-1; human plasma, 20 μl, 20 U μl^-1; human urine, 10 μl, 10 U μl^-1). After enzyme incubation, 10 μl of IS solution was added to the plasma and urine samples (2 μg ml^-1 quercetin 3-β-D-glucoside for rat and dog plasma; 583 ng ml^-1 naringin-D4 and 160 ng ml^-1 naringenin-D4 for human plasma; and 9,710 ng ml^-1 naringin-D4 and 6,000 ng ml^-1 naringenin-D4 for human urine). To each fecal sample, 9-fold methanol-normal saline (2:1, v/v) was added, mixed (18,000 rpm, 15 min) by vortexing and centrifuged (10 min, 9,000 rpm, 4°C). Next, 10 μl IS solution (971 ng ml^-1 naringin-D4 and 600 ng ml^-1 naringenin-D4) was added to the supernatants of feces (200 μl) without enzyme incubation. […] The solid material was dissolved with acetonitrile-water (1:1, v/v) and injected into the ultra high-performance liquid chromatography coupled with triple quadrupole mass spectrometry (UHPLC/MS/MS) system as described below. The analysis of nonclinical and clinical samples was performed with a UHPLC/MS/MS system that consisted of a Shimadzu Nexera X2 ultra high-performance liquid chromatography (UHPLC) (Shimadzu Corp., Kyoto, Japan) coupled with an AB Sciex API4000 triple-quadrupole mass spectrometry (MS/MS) system (AB Sciex, Foster City, CA, USA) equipped with an electrospray ionization source and controlled by Analyst (v. 1.6.2) software. […] The injection volume was 10 μl with the flow rate of 0.3 ml min^-1 for plasma, and 0.4 ml min^-1 for urine and feces. The compounds were detected by multiple reaction monitoring in the negative ion electrospray mode. The electrospray source conditions were as follows: ion source gas1 30 psi, ion source gas2 60 psi, curtain gas 20 psi, collisionally activated dissociation (CAD) gas 8 psi, temperature 500°C, and ion spray voltage −4,500 V. Zero air was used for ion source gas1 and ion source gas2 and nitrogen for curtain gas and CAD gas. […] All pharmacokinetic and excretion parameters were expressed as mean ± standard deviation (SD). All mean and SD values were reported to three significant figures. The pharmacokinetic parameters were calculated using the Phoenix WinNonlin software (Version 6.4, Pharsight Corp., Cary, NC, USA) and compared using the Student's t-test (p < 0.05) in SPSS 18.0 (SPSS Inc., Chicago, IL, USA). […] For the multiple-dose studies, pharmacokinetic parameters included the mean plasma level at steady state, Tmax, t1/2, the percent fluctuation, and the accumulation index (Table 3). […] In addition, we compared the pharmacokinetic parameters obtained from males and females (Tables 4–6).

Setting [4] is: naringin 42 mg kg^-1 multiple dose, rat, female.
Setting [5] is: naringin 42 mg kg^-1 multiple dose, rat, male.
The mark [6] stands for this setting: naringin 42 mg kg^-1 p.o. three times a day, multiple dose, rat.

With `C[C@@H]1O[C@@H](O[C@H]2[C@H](Oc3cc(O)c4c(c3)O[C@H](c3ccc(O)cc3)CC4=O)O[C@H](CO)[C@@H](O)[C@@H]2O)[C@H](O)[C@H](O)[C@H]1O` [naringin, Naringin], the cumulative excretion percentage in data set [1] (in the forms of naringin, naringenin, and 4-hydroxyphenylpropionic acid) is recorded as 60%; in data set [2] (aged rats, in the forms of naringin and naringenin, ref Zeng et al., 2019), 19%; in data set [2] (aged rats, in the forms of naringin, naringenin, and 4-hydroxyphenylpropionic acid, ref Zeng et al., 2019), 98%; in data set [2] (rats, in the forms of naringin, naringenin, and 4-hydroxyphenylpropionic acid, ref Liu M. et al., 2012), 21%. For the same compound, the “time within which excreted” value is not above 24 h in data set [1] and not above 24 h in data set [2] (rats, ref Liu M. et al., 2012). Moreover, the CavSS in data set [3] (setting [4]) was found to be 17.4 ± 19.9 ng/mL; in data set [3] (setting [5]), 6.03 ± 9.48 ng/mL; in data set [3] (setting [6]), 11.7 ± 15.9 ng/mL. Further, the Fluctuation is listed as 612 ± 233% in data set [3] (setting [4]); 844 ± 1,030% in data set [3] (setting [5]); 728 ± 711% in data set [3] (naringin 42 mg kg^-1 p.o. three times a day, multiple dose, rat, (CmaxSS−CminSS)/CavSS×100%). The “accumulation in multiple-dose study” value in data set [3] (rats) was “no significant accumulation”.
In the case of `O=C1C[C@@H](c2ccc(O)cc2)Oc2cc(O)cc(O)c21` [naringenin, Naringenin], the “time within which excreted” value in data set [1] was not above 24 h; in data set [2] (rats, ref Liu M. et al., 2012), not above 24 h. Also, the CavSS in data set [3] (setting [4]) is 600 ± 517 ng/mL; in data set [3] (setting [5]), 178 ± 90.8 ng/mL; in data set [3] (setting [6]), 389 ± 415 ng/mL. Besides, the “accumulation in multiple-dose study” value in data set [3] (rat, in vivo) is “no significant accumulation”.
